# Target: Mitogen-activated protein kinase kinase kinase kinase 4 (Homo sapiens, UniProt O95819)
# Test: Inhibition of recombinant human HGK using Ulight-FLGFTYVAP as substrate after 90 mins by LANCE assay
# Conditions: not given
# Sequence of Mitogen-activated protein kinase kinase kinase kinase 4 (O95819 whole entry): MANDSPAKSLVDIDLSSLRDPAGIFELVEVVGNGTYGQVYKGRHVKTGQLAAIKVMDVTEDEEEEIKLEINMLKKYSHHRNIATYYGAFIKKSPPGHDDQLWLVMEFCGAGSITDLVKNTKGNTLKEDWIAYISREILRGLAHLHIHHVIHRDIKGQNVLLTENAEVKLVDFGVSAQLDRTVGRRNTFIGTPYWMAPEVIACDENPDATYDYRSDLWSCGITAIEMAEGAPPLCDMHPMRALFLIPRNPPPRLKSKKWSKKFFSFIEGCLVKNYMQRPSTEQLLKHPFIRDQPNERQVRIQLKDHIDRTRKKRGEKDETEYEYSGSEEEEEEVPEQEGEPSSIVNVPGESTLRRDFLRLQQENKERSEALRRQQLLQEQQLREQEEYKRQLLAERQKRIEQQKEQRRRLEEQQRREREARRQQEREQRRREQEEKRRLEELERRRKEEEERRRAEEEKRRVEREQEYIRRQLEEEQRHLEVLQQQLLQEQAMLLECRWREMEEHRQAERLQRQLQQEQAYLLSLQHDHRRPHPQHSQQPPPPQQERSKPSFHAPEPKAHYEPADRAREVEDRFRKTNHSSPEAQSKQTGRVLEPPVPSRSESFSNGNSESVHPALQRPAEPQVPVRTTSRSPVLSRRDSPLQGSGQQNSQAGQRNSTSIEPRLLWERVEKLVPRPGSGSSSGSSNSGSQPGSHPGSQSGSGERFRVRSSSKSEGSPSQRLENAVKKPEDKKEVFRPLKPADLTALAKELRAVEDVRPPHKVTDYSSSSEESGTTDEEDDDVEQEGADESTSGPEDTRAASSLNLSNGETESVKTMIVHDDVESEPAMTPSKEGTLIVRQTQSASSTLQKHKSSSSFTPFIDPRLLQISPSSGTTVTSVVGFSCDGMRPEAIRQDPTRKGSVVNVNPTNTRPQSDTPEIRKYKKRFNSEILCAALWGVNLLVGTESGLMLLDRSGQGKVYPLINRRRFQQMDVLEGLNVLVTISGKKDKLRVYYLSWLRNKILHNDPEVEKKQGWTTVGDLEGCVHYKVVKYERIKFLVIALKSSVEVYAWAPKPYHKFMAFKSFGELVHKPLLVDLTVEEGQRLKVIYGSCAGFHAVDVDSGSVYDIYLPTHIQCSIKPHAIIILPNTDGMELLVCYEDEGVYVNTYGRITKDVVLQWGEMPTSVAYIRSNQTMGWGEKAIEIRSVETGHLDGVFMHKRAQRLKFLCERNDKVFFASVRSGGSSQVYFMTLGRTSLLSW
row,IC50 [µM],Compound
1,> 100,C[C@H]1NC(c2ccc(Br)cc2)=Nc2nc3ccccn3c2C1=O
2,> 100,C[C@@H]1NC(c2ccc(-c3ccccc3)cc2)=Nc2nc3ccccn3c2C1=O
3,> 100,CC(=O)Nc1ccc(C2=Nc3nc4ccccn4c3C(=O)[C@H](C)N2)cc1
4,44,CC(C)[C@@H]1NC(c2ccc(Br)cc2)=Nc2nc3ccccn3c2C1=O

# Tested on: not listed separately
# Test: Cytotoxicity against human MDA-MB-435 cells assessed as growth inhibition after 48 hrs by MTT assay
# Type: functional
# Conditions: MDA-MB-435, 48 h
row,Compound,GI50 [µM]
1,NCCCC[C@@H]1NC(c2ccc(Br)cc2)=Nc2nc3ccccn3c2C1=O,> 10
2,C[C@H]1C(=O)c2c(nc3ccccn23)N=C(c2ccc(Br)cc2)N1C,> 10
3,C[C@@H]1NC(c2ccc(C(F)(F)F)cc2)=Nc2nc3ccccn3c2C1=O,> 10
4,CNC(=O)c1ccc(C2=Nc3nc4ccccn4c3C(=O)[C@H](C)N2)cc1,> 10
5,Cc1ccccc1C1=Nc2nc3ccccn3c2C(=O)[C@H](C)N1,> 10
6,O=C1CNC(c2ccc(Br)cc2)=Nc2nc3ccccn3c21,> 10
7,C[C@@H]1NC(c2cccc(Br)c2)=Nc2nc3ccccn3c2C1=O,> 10
8,C[C@@H]1NC(c2cccc(Cl)c2)=Nc2nc3ccccn3c2C1=O,10
9,C[C@@H]1NC(c2ccccc2Br)=Nc2nc3ccccn3c2C1=O,8.35
10,C[C@@H]1NC(c2ccc(C#N)cc2)=Nc2nc3ccccn3c2C1=O,> 10
11,O=C(NCCCC[C@@H]1NC(c2ccc(Br)cc2)=Nc2nc3ccccn3c2C1=O)OCc1ccccc1,> 10
12,C[C@@H]1NC(c2ccc(Br)cc2)=Nc2nc3ccccn3c2[C@H]1O,> 10
13,C[C@@H]1NC(c2ccc(F)cc2)=Nc2nc3ccccn3c2C1=O,> 10
14,C[C@@H]1NC(c2ccc(Cl)c(C(F)(F)F)c2)=Nc2nc3ccccn3c2C1=O,> 10
15,O=C1c2c(nc3ccccn23)N=C(c2ccc(Br)cc2)N[C@H]1CO,0.95 to 1
16,C[C@@H]1NC(c2ccc(I)cc2)=Nc2nc3ccccn3c2C1=O,1.35
17,C[C@@H]1NC(c2cccc3ccccc23)=Nc2nc3ccccn3c2C1=O,1.4
18,CC[C@@H]1NC(c2ccc(Br)cc2)=Nc2nc3ccccn3c2C1=O,1
19,C[C@H]1NC(c2ccc(Br)cc2)=Nc2nc3ccccn3c2C1=O,> 100
20,C[C@@H]1NC(c2ccccc2Cl)=Nc2nc3ccccn3c2C1=O,6.5
21,C[C@@H]1NC(c2ccc(-c3ccccc3)cc2)=Nc2nc3ccccn3c2C1=O,40
22,CCOC(=O)c1ccc(C2=Nc3nc4ccccn4c3C(=O)[C@H](C)N2)cc1,> 10
23,CC(=O)Nc1ccc(C2=Nc3nc4ccccn4c3C(=O)[C@H](C)N2)cc1,10 to 100
24,COc1ccc(C2=Nc3nc4ccccn4c3C(=O)[C@H](C)N2)cc1OC,> 10
25,CC(C)[C@@H]1NC(c2ccc(Br)cc2)=Nc2nc3ccccn3c2C1=O,50

# Source: ChEMBL document CHEMBL3877299, “Imidazopyridine-fused [1,3]-diazepinones part 2: Structure-activity relationships and antiproliferative activity against melanoma cells” (Eur J Med Chem, 2017)
